Results as given in paper PMC7918612, “Novel Inhibitors of Nicotinamide-N-Methyltransferase for the Treatment of Metabolic Disorders” (Molecules, 2021).
Like-named read-outs stand apart in the source and are kept apart here.

Key:
[1] = Metabolic stability in human liver microsomes; assay type: in vitro ADME; design: HLM: unit not given beside the values; conditions: for remaining at 1 h: human liver microsomes, read-out: HLM % Remaining at 1 h; for HLM: Table 3, human liver microsome data, head HLM/MLM without unit
Experimental: (§1) Experimental Procedures S3: Metabolic stability in human and mouse liver microsomes
(§2) These profiling studies were carried out as described in Mullangi R. et. al. Preclinical assessment of
(§3) ulixertinib, a novel ERK1/2 inhibitor, ADMET & DMPK, 2017, 212-223;

mouse NNMT = target: T1, mouse NNMT (Mus musculus, UniProt O55239); experiment: Fluorescence-based NNMT enzymatic assay (mouse enzyme); assay type: biochemical; conditions: for IC50: read-out: mNNMT IC50
T1 sequence (O55239 1-264): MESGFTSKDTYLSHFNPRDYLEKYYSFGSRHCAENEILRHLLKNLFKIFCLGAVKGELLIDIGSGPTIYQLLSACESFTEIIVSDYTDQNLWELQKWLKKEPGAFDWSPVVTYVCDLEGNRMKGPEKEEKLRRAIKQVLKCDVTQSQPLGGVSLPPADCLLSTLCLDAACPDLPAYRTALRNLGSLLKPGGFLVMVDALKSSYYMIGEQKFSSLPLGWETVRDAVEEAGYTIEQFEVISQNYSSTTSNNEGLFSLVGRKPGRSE
Experimental: (§4) Experimental Procedures S2: Fluorescence-based NNMT enzymatic assay
(§5) NNMT activity was measured by fluorescence based assay. The product MNA formed in the reaction reacts with acetophenone in the presence of KOH and formic acid and forms a fluorescent product 2, 7- naphthyridine. The fluorescence intensity measured with excitation at 375nm and emission at 430nm. Inhibitors were screened using human, mouse and monkey NNMT enzymes. Different concentrations of inhibitors were pre-incubated along with 5ng/well of human NNMT enzyme and 3.42ng/well of mouse NNMT enzyme for 30 minutes at room temperature. Reaction was initiated by addition of SAM and nicotinamide mixture (7µM, 20µM, 8µM SAM and 6µM, 20µM, 9µM nicotinamide for human, mouse and monkey NNMT assays respectively) and incubated for 60 minutes at 37°C. The final assay reaction mixture contained a buffer of 100mM Tris Hcl pH 7.5, 0.04% BSA, 2mM Dithiothreitol and 1% DMSO. The reaction was terminated by addition of Ethanol: Acetophenone mix (75% ethanol: 25% Acetophenone) and 5M potassium Hydroxide prepared with 50% Ethanol. The reaction was incubated for 15 minutes followed by addition of 100µl of 60% formic acid and further incubation for 60 minutes at room temperature. A fluorescent product 2, 7- naphthyridine was measured in a Tecan reader with excitation at 375nm and emission at 430nm. The IC50 values were determined by fitting the inhibition curves (percent inhibition versus inhibitor concentration) using a four parametric sigmoidal dose response in graph pad prism. […]

human NNMT = target: T2, human NNMT (Homo sapiens, UniProt P40261); experiment: Fluorescence-based NNMT enzymatic assay (human enzyme); assay type: biochemical; conditions: for IC50: read-out: hNNMT IC50; for reduction in potency on hNNMT: relative to (1)
T2 sequence (P40261 1-264): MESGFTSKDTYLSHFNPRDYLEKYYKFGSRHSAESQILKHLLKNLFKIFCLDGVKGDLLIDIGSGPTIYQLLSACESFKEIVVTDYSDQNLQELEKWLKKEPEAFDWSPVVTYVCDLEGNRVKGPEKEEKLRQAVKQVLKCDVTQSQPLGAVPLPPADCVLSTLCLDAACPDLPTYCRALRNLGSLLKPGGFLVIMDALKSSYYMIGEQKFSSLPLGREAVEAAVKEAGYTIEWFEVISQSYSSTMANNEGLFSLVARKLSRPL
Experimental: as §4, §5

[2] = Metabolic stability in mouse liver microsomes; assay type: in vitro ADME; conditions: for remaining at 1 h: mouse liver microsomes, read-out: MLM % Remaining at 1 h; for MLM: Table 3, mouse liver microsome data, head HLM/MLM without unit
Experimental: as §1, §2, §3

[3] = Metabolic stability in rat liver microsomes; assay type: in vitro ADME; conditions: read-out: RLM % Remaining at 1 h
NNMT = conditions: substrate of NNMT; cited from earlier work
[4] = Metabolic stability in liver microsomes (species not specified); assay type: in vitro ADME
Experimental: as §1, §2, §3

[5] = tested on: mice with diet-induced obesity; conditions: cited from earlier work

Row | Compound | remaining at 1 h [1] | IC50 (mouse NNMT) | IC50 (human NNMT) | remaining at 1 h [2] | hNNMT potency, in words (human NNMT) | further results
1 | Cc1nn(CC(C)(O)C(=O)N2CCN(c3c(C)sc4cnccc34)CC2)cc1-c1cccc(F)c1 (stereo not drawn) [Compound 14] | < 5% | 3480 nM | 490 nM | < 5% |  | 
2 | CCn1c(=N)n2c3c(cccc31)CCC2 [Compound 3] |  | 500 nM | 200 nM |  |  | mode of inhibition (human NNMT; competition with substrates nicotinamide / SAM): competitive inhibitors either of nicotinamide alone
3 | Cc1nn(CCC(=O)N2CCN(c3cccc4cnccc34)CC2)cc1-c1ccccc1 [Compound 6] |  | 2200 nM | 1670 nM |  |  | reduction in potency on mouse NMMT (mNNMT) (mouse NNMT; relative to (1)): 2.5 fold; reduction in potency on hNNMT (human NNMT): six-fold reduction
4 | Cc1nn(CC(C)(O)C(=O)N2CCN(c3cccc4cncnc34)CC2)cc1-c1cccc(F)c1 (stereo not drawn) [Compound 16] | < 5% | 1630 nM | 1100 nM | < 5% |  | remaining at 1 h [3]: < 5%
5 | Cc1nn(CC(C)(O)C(=O)N2CCN(c3ccc4c(cnn4Cc4ccccc4)c3)CC2)cc1-c1cccc(F)c1 (stereo not drawn) [Compound 18] | 35% |  | > 30000 nM | 30% |  | remaining at 1 h [3]: < 5%
6 | Cc1nn(CC(C)(O)C(=O)N2CCN(c3ccc4[nH]ncc4c3)CC2)cc1-c1cccc(F)c1 (stereo not drawn) [Compound 19] |  |  | > 10000 nM |  |  | 
7 | Cc1nn(CC(C)(O)C(=O)N2CC(c3cccc4cnccc34)C2)cc1-c1cccc(F)c1 (stereo not drawn) [Compound 29] |  |  |  |  |  | HLM [1]: <5/<5; IC50 (human NNMT; Table 3): > 30000 nM; MLM [2]: <5/<5
8 | Cc1nn(CC(C)(O)C(=O)N2CCC(c3cccc4[nH]c(=O)ccc34)CC2)cc1-c1cccc(F)c1 (stereo not drawn) [Compound 25] |  |  |  |  |  | HLM [1]: 17; IC50 (mouse NNMT; Table 3): > 3000 nM; reduction in mNNMT potency (mouse NNMT; compared to (21)): two-fold reduction; IC50 (human NNMT; Table 3): 750 nM; MLM [2]: < 5
9 | Cc1nn(CC(C)(O)C(=O)N2CCN(c3ccc4cnccc4c3)CC2)cc1-c1cccc(F)c1 (stereo not drawn) [Compound 8] | < 5% |  | > 10000 nM | < 5% | completely lost hNNMT activity | remaining at 1 h [3]: < 5%
10 | NC(=O)c1cccnc1 [nicotinamide] |  |  |  |  |  | Km (NNMT): 400 µM
11 | Cc1nn(CC(C)(O)C(=O)N2CCN(c3cccc4[nH]c(=O)ccc34)CC2)cc1-c1cccc(F)c1 (stereo not drawn) [Compound 21] | 20% | 1640 nM | 250 nM | < 5% | reasonable potency | remaining at 1 h [3]: < 5%; metabolic stability, in words [4]: did not improve
12 | C[S+](CC[C@H](N)C(=O)[O-])C[C@H]1O[C@@H](n2cnc3c(N)ncnc32)[C@H](O)[C@@H]1O (stereo partly drawn) [SAM, S-adenosyl-methionine] |  |  |  |  |  | Km (NNMT): 1.8 µM
13 | Cc1nn(CC(C)(O)C(=O)N2CCN(c3cccc4[nH]ncc34)CC2)cc1-c1cccc(F)c1 (stereo not drawn) [Compound 20] | 18% |  | > 3000 nM | < 5% |  | 
14 | Cc1nn(CC(C)(O)C(=O)N2CCN(c3cccc4cnncc34)CC2)cc1-c1cccc(F)c1 (stereo not drawn) [Compound 15] | < 5% | 5100 nM | 790 nM | < 5% |  | remaining at 1 h [3]: < 5%
15 | Cc1nn(CC(C)(O)C(=O)N2CCN(c3cccc4cnccc34)CC2)cc1-c1ccc(F)c(F)c1 (stereo not drawn) [Compound 10] | 7% | > 3000 nM | 290 nM | < 5% |  | 
16 | Cc1nn(CC(C)(O)C(=O)N2CCN(c3c(F)ccc4cnccc34)CC2)cc1-c1cccc(F)c1 (stereo not drawn) [Compound 11] | < 5% | 1870 nM | 200 nM | < 5% | retains potency | mNNMT potency, in words (mouse NNMT): retains potency
17 | COc1ccc(-c2cn(C[C@](C)(O)C(=O)N3CCN(c4cccc5cnccc45)CC3)nc2C)cc1 (stereo in doubt) [Compound 12] |  | 0.8 nM | 8 nM |  | nanomolar potency | mNNMT potency, in words (mouse NNMT): nanomolar potency
18 | Cc1nn(CC(C)(O)C(=O)N2CCN(c3cnc4cnccn34)CC2)cc1-c1cccc(F)c1 (stereo not drawn) [Compound 17] | 27% |  | > 3000 nM | 8% |  | remaining at 1 h [3]: < 5%
19 | 5-amino-1-methylquinoline |  |  |  |  |  | body weight [5]: reduced body weight; glucose tolerance [5]: improved glucose tolerance; insulin sensitivity [5]: higher insulin sensitivity
20 | Cc1nn(CC(O)C(=O)N2CCN(c3cccc4cnccc34)CC2)cc1-c1cccc(F)c1.O=C(O)C(F)(F)F (stereo not drawn) [Compound 9] |  | 2430 nM | 880 nM |  |  | reduction in potency on hNNMT (human NNMT): three-fold reduction
21 | Cc1nn(CC(C)(O)C(=O)N2CCN(c3cccc4cnccc34)CC2)cc1-c1ccccc1 (stereo not drawn) [Compound 1] |  | 840 nM | 260 nM |  |  | 
22 | COc1ccc(C(N)=O)cn1 [6-methoxynicotinamide] |  |  |  |  |  | body weight [5]: reduced body weight; glucose tolerance [5]: improved glucose tolerance; insulin sensitivity [5]: higher insulin sensitivity
23 | Cc1nn(CC(C)(O)C(=O)N2CCC(O)(c3cccc4cnccc34)CC2)cc1-c1cccc(F)c1 (stereo not drawn) [Compound 31] |  |  |  |  |  | HLM [1]: 23; IC50 (mouse NNMT; Table 3): 560 nM; IC50 (human NNMT; Table 3): 110 nM; increase in potency (human NNMT; comparator not stated): three-fold increase; metabolic stability, in words [4]: insufficient for further profiling; MLM [2]: < 5

Further lines, with some results ahead:

Row | remaining at 1 h [1] | IC50 (mouse NNMT) | IC50 (human NNMT) | remaining at 1 h [2] | hNNMT potency, in words (human NNMT) | Compound | further results
24 | < 5% |  | > 10000 nM | < 5% |  | Cc1nn(CC(C)(O)C(=O)N2CCN(c3cccc4c3OCC(=O)N4)CC2)cc1-c1cccc(F)c1 (stereo not drawn) [Compound 24] | 
25 |  |  |  |  | substantial loss of potency | Cc1nn(CC(C)(O)C(=O)N2CCC(C3=CC=CC4NC(=O)C=CC34)C2)cc1-c1cccc(F)c1 (stereo not drawn) [Compound 26] | HLM [1]: 12; IC50 (human NNMT; Table 3): > 10000 nM; MLM [2]: < 5
26 |  | 3000 nM | 2500 nM |  |  | CC(O)(C/N=c1/sc2cccc3c2n1CCC3)C(=O)N1CCN(c2cccc3cnccc23)CC1 (stereo not drawn) [Compound 33] | 
27 |  |  |  |  | completely lost NNMT inhibition | Cc1nn(CC(C)(O)C(=O)N2CCC(O)(c3cccc4c[n+]([O-])ccc34)CC2)cc1-c1cccc(F)c1 (stereo not drawn) [Compound 32] | HLM [1]: 72; metabolic stability, in words ([1]; humans): improved metabolic stability; IC50 (human NNMT; Table 3): > 30000 nM; MLM [2]: 32; metabolic stability, in words ([2]; mice): improved metabolic stability
28 |  |  |  |  | substantial loss of potency | Cc1nn(CC(C)(O)C(=O)N2CCCN(c3cccc4[nH]c(=O)ccc34)CC2)cc1-c1cccc(F)c1 (stereo not drawn) [Compound 28] | IC50 (mouse NNMT; Table 3): > 30000 nM; IC50 (human NNMT; Table 3): > 3000 nM
29 |  |  |  |  | inactive | Cc1nn(CC(C)(O)C(=O)N2CCC(O)(c3cccc4[nH]c(=O)ccc34)CC2)cc1-c1cccc(F)c1 (stereo not drawn) [Compound 30] | HLM [1]: <5/<5; IC50 (human NNMT; Table 3): > 10000 nM; MLM [2]: <5/<5
30 | < 5% | 1000 nM | 150 nM | < 5% |  | Cc1nn(CC(C)(O)C(=O)N2CCN(c3cccc4c3ccc(=O)n4C)CC2)cc1-c1cccc(F)c1 (stereo not drawn) [Compound 23] | metabolic stability, in words [4]: did not improve
31 | 16% |  | > 30000 nM | < 5% | not active | Cc1nn(CC(C)(O)C(=O)N2CCN(c3cccc4c(=O)[nH]ccc34)CC2)cc1-c1cccc(F)c1 (stereo not drawn) [Compound 22] | remaining at 1 h [3]: 31%
32 |  |  |  |  | substantial loss of potency | Cc1nn(CC(C)(O)C(=O)N2CC(c3cccc4[nH]c(=O)ccc34)C2)cc1-c1cccc(F)c1 (stereo not drawn) [Compound 27] | IC50 (human NNMT; Table 3): > 30000 nM
